According to US20180303807A1, “ANDROGEN RECEPTOR LIGANDS” (DUKE UNIVERSITY, priority 2015, published 2018):

How the values were obtained:
[1] = biological target: T1, AR (Homo sapiens, UniProt P10275); assay: Reporter gene assay, AR transcriptional (MMTV-Luc) in CV1 cells; format: cell-based; details: pcDNA-AR + MMTV-Luc, 0.1 nM R1881 plus test compound, 24 hrs, read-out: B1 = AR transcriptional IC50 (μM) in CV1 cells
T1 construct: expressed in transfected cells; host or cells: CV1 cells
T1 sequence (P10275 1-920): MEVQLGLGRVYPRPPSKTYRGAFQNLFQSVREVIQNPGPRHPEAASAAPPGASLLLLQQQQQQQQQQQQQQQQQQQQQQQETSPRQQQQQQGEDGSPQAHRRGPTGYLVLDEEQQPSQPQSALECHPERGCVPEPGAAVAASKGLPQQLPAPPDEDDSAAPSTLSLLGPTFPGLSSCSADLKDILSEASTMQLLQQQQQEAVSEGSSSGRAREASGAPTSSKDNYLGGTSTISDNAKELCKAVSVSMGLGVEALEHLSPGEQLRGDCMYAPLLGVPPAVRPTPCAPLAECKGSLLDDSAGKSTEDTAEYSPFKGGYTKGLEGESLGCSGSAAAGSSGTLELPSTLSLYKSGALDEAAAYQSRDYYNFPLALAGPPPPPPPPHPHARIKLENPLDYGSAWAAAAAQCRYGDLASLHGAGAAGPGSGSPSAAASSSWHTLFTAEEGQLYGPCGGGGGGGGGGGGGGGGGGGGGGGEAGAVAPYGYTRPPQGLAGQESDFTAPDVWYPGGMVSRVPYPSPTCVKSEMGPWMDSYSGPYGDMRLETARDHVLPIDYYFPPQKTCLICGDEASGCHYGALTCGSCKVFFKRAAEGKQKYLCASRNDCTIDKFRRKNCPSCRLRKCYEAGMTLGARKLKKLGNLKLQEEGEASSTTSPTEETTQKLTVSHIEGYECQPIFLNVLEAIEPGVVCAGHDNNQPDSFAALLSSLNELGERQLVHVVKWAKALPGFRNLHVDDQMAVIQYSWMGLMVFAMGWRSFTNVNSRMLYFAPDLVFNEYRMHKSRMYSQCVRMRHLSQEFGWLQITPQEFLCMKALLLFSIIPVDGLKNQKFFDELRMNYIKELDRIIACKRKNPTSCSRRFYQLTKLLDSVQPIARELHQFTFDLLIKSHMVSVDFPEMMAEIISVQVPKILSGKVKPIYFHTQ
Description: (§1) Reporter Gene Assay (IC50 determination, Table 2, B1-B3). CV1 cells were seeded into 96-well cell culture plates and transfected with Lipofectin. For AR transcriptional assays, the DNA mixture consisted of pcDNA-AR, MMTV-Luc (androgen responsive reporter gene), and Renilla-Luc (for assessing transfection efficiency and toxicity). Following overnight incubation, cells were induced with hormone (0.1 nM R1881 (synthetic AR agonist) plus increasing concentrations of test compound) for 24 hrs. Cells were lysed and luciferase activity was quantified using Dual Luciferase Reagent (DLR). IC50 determination was assessed using GraphPad Prism software.

[2] = tested on: CV1 cells; assay: Toxicity of test compound in the CV1 reporter gene assay (Renilla-Luc); format: cell-based
Description: as §1

SMILES | IC50 [1] | B2 = % Toxicity of test compound (20 μM) [2] | B3 = % Toxicity of test compound (60 μM) [2]
Cc1n[nH]c2c1C(c1ccc([N+](=O)[O-])cc1)C1=C(N2)C(C)(C)CCC1=O (stereo not drawn) [Compound A23] | > 10 µM | 0% | 0%
O=C1CCCC2=C1C(c1ccc3c(c1)OCO3)c1c(ccc3ccccc13)N2 (stereo not drawn) [Compound A15] | > 10 µM | 0% | 0%
CC1(C)CC(=O)C2=C(C1)Nc1ccc3ccccc3c1C2c1cccnc1 (stereo not drawn) [Compound A13] | 12 µM | 0% | 78%
O=C1CCCC2=C1C(c1ccc(O)cc1)c1c(ccc3ccccc13)N2 (stereo not drawn) [Compound A20] | > 10 µM | 0% | 0%
CC1(C)CC(=O)C2=C(C1)Nc1ccc3ncccc3c1C2c1ccc(Cl)c([N+](=O)[O-])c1 (stereo not drawn) [Compound A5] | 3.3 µM | 24% | 68%
O=[N+]([O-])c1ccc(C2C3=C(CCCC3)Nc3ccc4ccccc4c32)cc1 (stereo not drawn) [Compound A25] | > 10 µM | 23% | 42%
CC1(C)CC(=O)C2=C(C1)Nc1ccc3ccccc3c1C2c1cc([N+](=O)[O-])c(O)cc1Cl (stereo not drawn) [Compound A16] | > 10 µM | 0% | 0%
O=C1CCCC2=C1C(c1cccc([N+](=O)[O-])c1)c1c(ccc3ccccc13)N2 (stereo not drawn) [Compound A21] | > 10 µM | 0% | 28%
CC1(C)CC(=O)C2=C(C1)Nc1ccc3ccccc3c1C2c1ccc(-c2nnc(N)s2)cc1 (stereo not drawn) [Compound A19] | > 10 µM | 0% | 87%
CC1(C)CC(=O)C2=C(C1)Nc1ccc3ncccc3c1C2c1ccc(O)cc1 (stereo not drawn) [Compound A24] | > 10 µM | 0% | 35%
O=C1CCCC2=C1C(c1ccco1)c1c(ccc3ccccc13)N2 (stereo not drawn) [Compound A17] | > 10 µM | 0% | 36%
